One data set is described as follows: in vitro. The conditions noted are these: human.
For data set [1], the system named is human red blood cells (hRBCs). The conditions noted are these: at 5 'LIM.

Regarding `CC[C@H](C)[C@H](NC(=O)CN)C(=O)NCC(=O)N[C@@H](C)C(=O)N[C@H](C(=O)N[C@@H](CC(C)C)C(=O)N[C@@H](CCCCN)C(=O)N[C@H](C(=O)N[C@@H](CC(C)C)C(=O)N[C@H](C(=O)N[C@H](C(=O)NCC(=O)N[C@@H](CC(C)C)C(=O)N1CCC[C@H]1C(=O)N[C@@H](C)C(=O)N[C@@H](CC(C)C)C(=O)N[C@H](C(=O)N[C@@H](CO)C(=O)N[C@@H](Cc1c[nH]c2ccccc12)C(=O)N[C@H](C(=O)N[C@@H](CCCCN)C(=O)N[C@@H](CCCNC(=N)N)C(=O)N[C@@H](CCCCN)C(=O)N[C@@H](CCCNC(=N)N)C(=O)N[C@@H](CCC(N)=O)C(=O)N[C@@H](CCC(N)=O)C(N)=O)[C@@H](C)CC)[C@@H](C)CC)[C@@H](C)O)[C@@H](C)O)C(C)C)C(C)C` [Melittin], the hemolysis at 5 µM in the data set “in vitro” is > 80%. Also, in data set [1], the “hemolytic activity” value is listed as “highly hemolytic”.

The values above are taken from patent publication US9533975B2, “Dual-action, unnatural proline-rich peptides as antibiotic agents and methods thereof” (Purdue Research Foundation, priority 2014, dated 2017).
